Laboratory results from patent US9023789B2, “Amylin analogs and pharmaceutical compositions thereof” (Novo Nordisk A/S, priority 2012, dated 2015).
In brackets after ≈: the same amount, converted by molar mass. Where two headings read alike, the source gives them in different places. Numbered stars: 1 amine (or outer) side, 2 acyl side, 3 side chain; on linkers, the order of the positions; unused ones are H or OH. Bridge positions count the residues as written; N and C are the ends. Side chains are listed from the residue outwards. Peptide text beside a SMILES is read from it. * marks the point of attachment. C20 diacid = O=C(O)CCCCCCCCCCCCCCCCCCC(=O)*; γGlu = O=C(O)[C@H](CCC(=O)[*:2])N[*:1]

Experiments:
[1] = target: T1, human amylin 3(a) receptor (human calcitonin receptor + RAMP-3) in BHK570 cells (Homo sapiens, UniProt O60896+P30988); experiment: ASSAY (II)a functional assay, human amylin receptor (CRE luciferase); format: cell-based
T1 construct: expressed in transfected cells
T1 sequence (O60896 24-148): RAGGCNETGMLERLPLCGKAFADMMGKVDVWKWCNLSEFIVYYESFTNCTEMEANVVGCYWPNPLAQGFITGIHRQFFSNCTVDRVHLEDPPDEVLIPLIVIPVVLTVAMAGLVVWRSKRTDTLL
T1 sequence (P30988 25-474): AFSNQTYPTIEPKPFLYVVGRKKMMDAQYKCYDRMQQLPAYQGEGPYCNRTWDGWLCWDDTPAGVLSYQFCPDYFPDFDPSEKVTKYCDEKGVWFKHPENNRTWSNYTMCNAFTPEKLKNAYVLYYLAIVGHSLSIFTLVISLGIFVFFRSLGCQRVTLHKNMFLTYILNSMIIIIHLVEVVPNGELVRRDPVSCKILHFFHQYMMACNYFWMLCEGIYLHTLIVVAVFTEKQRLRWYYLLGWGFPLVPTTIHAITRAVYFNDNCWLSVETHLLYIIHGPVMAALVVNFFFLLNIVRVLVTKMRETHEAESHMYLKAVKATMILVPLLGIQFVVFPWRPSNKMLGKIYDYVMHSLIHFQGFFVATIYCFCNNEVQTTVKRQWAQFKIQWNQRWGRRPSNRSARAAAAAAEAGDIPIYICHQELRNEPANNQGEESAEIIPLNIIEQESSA
Summary of the method: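 Functional agonism was measured by CRE-luciferase reporter luminescence in BHK cells bearing calcitonin receptor, or calcitonin receptor plus RAMP-3 as the amylin 3(a) receptor. Stimulation lasted 3 hours at 37° C.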

[2] = ASSAY (IV) determination of solubility; format: physicochemical
Summary of the method: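 UPLC read-out of polypeptide concentration after centrifugation. Samples: aqueous polypeptide stock ([…]) + 100 mM buffer 1:1, glycylglycine pH 3.0–5.0 or bistrispropane pH 6.0–8.0; 18 h, RT.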

[3] = target: T2, rat amylin receptor (rat calcitonin receptor + rat RAMP 3) (Rattus norvegicus, UniProt P32214+Q9JJ73); experiment: ASSAY (VI) binding to the rat amylin receptor; settings: for IC50: binding to rat amylin receptor, read-out: rAmylin-R bind IC50
T2 construct: expressed in transfected cells; host or cells: BHK tk'ts 13 (transient, FuGENE 6), membranes
T2 sequence (P32214 25-479 isoform P32214-2 limits assumed): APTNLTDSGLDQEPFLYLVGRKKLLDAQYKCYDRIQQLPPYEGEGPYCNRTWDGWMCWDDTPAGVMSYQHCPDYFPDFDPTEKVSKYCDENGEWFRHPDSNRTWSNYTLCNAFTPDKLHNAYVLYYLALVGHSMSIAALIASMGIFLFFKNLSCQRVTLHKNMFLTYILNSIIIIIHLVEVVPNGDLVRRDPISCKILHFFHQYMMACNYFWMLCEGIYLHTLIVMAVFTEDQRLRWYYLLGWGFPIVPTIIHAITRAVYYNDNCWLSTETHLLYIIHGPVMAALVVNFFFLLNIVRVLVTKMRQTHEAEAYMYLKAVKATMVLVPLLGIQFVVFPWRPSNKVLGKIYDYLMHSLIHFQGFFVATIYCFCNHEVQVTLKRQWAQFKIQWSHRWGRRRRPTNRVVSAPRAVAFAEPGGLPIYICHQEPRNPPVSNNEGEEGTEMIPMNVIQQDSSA
T2 sequence (Q9JJ73 23-147 partner): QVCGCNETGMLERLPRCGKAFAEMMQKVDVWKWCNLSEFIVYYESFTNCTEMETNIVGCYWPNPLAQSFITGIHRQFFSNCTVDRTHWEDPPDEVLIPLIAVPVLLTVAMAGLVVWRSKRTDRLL
Summary of the method: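 The cell-membrane assay assessed binding at the rat amylin receptor. BHK tk′ts 13 cells were transfected transiently with rat calcitonin receptor, with FuGENE® 6 (Roche) as the transfection reagent, used per the manufacturer's recommendations. Approximately 48 hours after transfection the cells were harvested, and membranes were prepared for measuring binding.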

rat calcitonin receptor = target: T3, rat calcitonin receptor (Rattus norvegicus, UniProt P32214); experiment: ASSAY (VIII) binding to the rat calcitonin receptor; settings: Table 7, read-out: rCTR bind IC50
T3 construct: expressed in transfected cells; host or cells: BHK tk'ts 13 (transient, FuGENE 6), membranes
T3 sequence (P32214 25-479 isoform P32214-2 limits assumed): T2 sequence (P32214 25-479 isoform P32214-2 limits assumed)
Summary of the method: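 Receptor source: membranes from transiently transfected BHK tk′ts 13 cells expressing rat calcitonin receptor, collected roughly 48 hours after transfection.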

[4] = hCTR funct. EC50 over hAmylin-R funct. EC50
[5] = human functional selectivity: hCTR funct. EC50 / hAmylin-R funct. EC50
[6] = bistrispropane buffer, pH 6.5, read-out: Solubility pH 6.5 Concentration
[7] = bistrispropane buffer, pH 7.5, read-out: Solubility pH 7.5 Concentration
[8] = bistrispropane buffer, pH 6.0, read-out: Solubility pH 6.0 Concentration
[9] = bistrispropane buffer, pH 7.0, read-out: Solubility pH 7.0 Concentration
[10] = glycylglycine buffer, pH 4.0, read-out: Solubility pH 4.0 Concentration
[11] = Table 7, rat binding selectivity, rCTR IC50 / rAmylin-R IC50
[12] = Table 7a (preferred compounds), rat binding selectivity, rCTR IC50 / rAmylin-R IC50

SMILES	Ratio hCT/hAmylin funct. [1, 4]	Ratio hCT/hAmylin funct. [1, 5]	solubility at 18 h [2, 6] [µM]	solubility at 18 h [2, 7] [µM]	solubility at 18 h [2, 8] [µM]	solubility at 18 h [2, 9] [µM]	solubility at 18 h [2, 10] [µM]	IC50 ([3]; Table 7) [pM]	Ratio rCT/rAmylin binding [3, 11]	Ratio rCT/rAmylin binding [3, 12]	IC50 (rat calcitonin receptor) [pM]	Ratio hCT/hAmylin funct. ([1]; hCTR funct. EC50 divided by hAmylin-R funct. EC50)	EC50 ([1]; human amylin receptor functional potency, assay (II), read-out: hAmylin-R funct. EC50) [pM]	solubility at 18 h ([2]; bistrispropane buffer, pH 8.0, read-out: Solubility pH 8.0 Concentration) [µM]	solubility at 18 h ([2]; glycylglycine buffer, pH 3.0, read-out: Solubility pH 3.0 Concentration) [µM]	solubility at 18 h ([2]; glycylglycine buffer, pH 5.0, read-out: Solubility pH 5.0 Concentration) [µM]	Ratio rCT/rAmylin binding ([3]; ratio of rCTR bind IC50 to rAmylin-R bind IC50)
CC[C@H](C)[C@H](NC(=O)[C@H](C)NC(=O)CNC(=O)[C@@H]1CCCN1C(=O)[C@H](CC(N)=O)NC(=O)[C@H](CC(N)=O)NC(=O)[C@H](CO)NC(=O)[C@H](CO)NC(=O)[C@H](Cc1c[nH]cn1)NC(=O)[C@H](CCCNC(=N)N)NC(=O)[C@H](CC(C)C)NC(=O)[C@H](Cc1ccccc1)NC(=O)[C@H](CCC(=O)O)NC(=O)[C@H](C)NC(=O)[C@H](CC(C)C)NC(=O)[C@H](CCCNC(=N)N)NC(=O)[C@H](CCC(N)=O)NC(=O)[C@@H](NC(=O)[C@H](C)NC(=O)[C@@H]1CSSC[C@H](NC(=O)[C@@H](N)CCCCNC(=O)CC[C@H](NC(=O)CC[C@H](NC(=O)CCCCCCCCCCCCCCCCCCC(=O)O)C(=O)O)C(=O)O)C(=O)N[C@@H](CC(N)=O)C(=O)N[C@@H]([C@@H](C)O)C(=O)N[C@@H](C)C(=O)N[C@@H]([C@@H](C)O)C(=O)N1)[C@@H](C)O)C(=O)N[C@@H](CC(C)C)C(=O)N[C@@H](CO)C(=O)N[C@@H](CO)C(=O)N[C@H](C(=O)N[C@@H](CC(N)=O)C(=O)N[C@H](C(=O)NCC(=O)N1CCC[C@H]1C(=O)N[C@@H](CCC(=O)O)C(=O)N[C@H](C(=O)N[C@@H](Cc1ccc(O)cc1)C(N)=O)[C@@H](C)O)C(C)C)[C@@H](C)O [Example 126] (H-K([γGlu-γGlu-C20 diacid])CNTATCATQRLAEFLRHSSNNPGAILSSTNVGPETY-NH2; disulfide 2-7 (inferred); N-terminus assumed)	17.3	17.3	131 (≈ 594 µg/mL)	≥ 200	64 (≈ 290 µg/mL)	198 (≈ 898 µg/mL)	7 (≈ 31.7 µg/mL)	659	131.7	131.7	86800	–	–	–	–	–	–
CC[C@H](C)[C@H](NC(=O)[C@H](C)NC(=O)CNC(=O)[C@H](Cc1ccccc1)NC(=O)[C@H](CC(N)=O)NC(=O)[C@@H]1CCCN1C(=O)[C@H](CO)NC(=O)[C@H](CO)NC(=O)[C@H](Cc1c[nH]cn1)NC(=O)[C@H](CCCNC(=N)N)NC(=O)[C@H](CC(C)C)NC(=O)[C@H](Cc1ccccc1)NC(=O)[C@H](Cc1c[nH]cn1)NC(=O)[C@H](C)NC(=O)[C@H](CC(C)C)NC(=O)[C@H](CCCNC(=N)N)NC(=O)[C@H](CCC(N)=O)NC(=O)[C@@H](NC(=O)[C@H](C)NC(=O)[C@@H]1CSSC[C@H](NC(=O)[C@@H](N)CCCCNC(=O)CC[C@H](NC(=O)CCCCCCCCCCCCCCCCCCC(=O)O)C(=O)O)C(=O)N[C@@H](CC(N)=O)C(=O)N[C@@H]([C@@H](C)O)C(=O)N[C@@H](C)C(=O)N[C@@H]([C@@H](C)O)C(=O)N1)[C@@H](C)O)C(=O)N1CCC[C@H]1C(=O)N[C@@H](CO)C(=O)N[C@@H](CO)C(=O)N[C@H](C(=O)N[C@@H](CC(N)=O)C(=O)N[C@H](C(=O)NCC(=O)N[C@@H](CO)C(=O)N[C@@H](CC(N)=O)C(=O)N[C@H](C(=O)N[C@@H](Cc1ccc(O)cc1)C(N)=O)[C@@H](C)O)C(C)C)[C@@H](C)O [Example 70] (H-K([γGlu-C20 diacid])CNTATCATQRLAHFLRHSSPNFGAIPSSTNVGSNTY-NH2; disulfide 2-7; N-terminus assumed)	17.9	17.9	≥ 200	≥ 200	≥ 200	≥ 200	≥ 200	355	96.5	96.5	34200	17.9	40	≥ 200	≥ 200	≥ 200	96.5
